In patent publication US10974081B2, “Treatment and prevention of sleep disorders” (Purdue Pharma L.P., priority 2016, dated 2021):

Legend:
[1] = system: rat plasma; assay: Rat protein binding, equilibrium dialysis of rat plasma; type: in vitro ADME; conditions: 24 hours dialysis at 37° C.
Protocol: The extent of in vitro binding of Compound (1F), […], or W-212393 to rat plasma was determined as an assessment of the protein binding of each compound, i.e., compound unavailable for modulating receptor activity. Plasma from rats containing a tested compound in one chamber of a dialysis cell was dialyzed with PBS in the other chamber; thereafter, the supernatant from each chamber was analyzed for the concentration of the tested compound present. A cell suitable for equilibrium dialysis was used in the determinations. The dialysis membrane described in Example 10 (with molecular mass cutoff of 12,000-14,000 Da) separated the dialysis cell into two chambers. The membrane was soaked with purified water and PBS before being placed into the dialysis cell. 4 μL of an iv formulation of each tested compound was added to 996 μL of rat plasma, the latter obtained using syringe containing heparin and EDTA by the procedure described in Example 10, to provide a plasma sample with a tested compound concentration of 2 μg/mL. 450 μL of the plasma sample was applied to one chamber (plasma chamber) of the dialysis cell. A 450 μL aliquot of PBS was applied to the other chamber (PBS chamber) of the dialysis cell. The dialysis study was conducted in duplicate for each tested compound. After 24 hours of equilibrium dialysis at 37° C., 30 μL of liquid from the plasma chamber of the dialysis cell was collected and to this was added 270 μL of fresh PBS (this combination was designated Sample “1”). Then, 270 μL of liquid from the PBS chamber of the dialysis cell was collected and to this was added 30 μL of control rat plasma (i.e., rat plasma never exposed to any test compound, this combination was designated Sample “2”). Thereafter, each sample was mixed well and stored in a freezer until the next analysis step. After the protein precipitated in the freezer, each supernatant thusly obtained was analyzed by LC-MS-MS for unbound test compound. […] Thereafter, the percentage of rat protein-bound (“RPB”) tested compound was calculated as follows: […]

[2] = system: human liver microsomes; assay: In vitro metabolic stability, human liver microsomes; type: in vitro ADME; conditions: 2 μM, % remaining after 30 minutes at 37° C.
Protocol: The comparative in vitro metabolic stabilities of Compounds (1F), […], and W-212393 were determined upon exposure to human liver microsomes or rat liver microsomes according to a procedure disclosed in, e.g., Example 14 of U.S. Pat. No. 9,290,488, which is hereby incorporated by reference in its entirety. Liver microsomes from Crj;CD rats or humans were incubated with 2 μM of each tested compound; thereafter, the supernatant was analyzed by HPLC-MS for the concentration of the tested compound present. Human liver microsomes, pooled, 20 mg/mL, were obtained from […] #H0610). […] Alternatively and if desired, rat liver microsomes can be obtained commercially from, e.g., XenoTech (Sprague-Dawley rat liver microsomes, pooled, 20 mg/mL, cat #R1000). β-NADPH (β-nicotinamide adenine dinucleotide 2'-phosphate reduced tetrasodium salt hydrate) was obtained from Oriental Yeast Co., Ltd. (Tokyo, Japan). Each tested compound, present at an initial concentration of 2 μM, was incubated at 37° C. in the presence of 0.5 mg/mL of either human microsomes or rat microsomes in suspension in 50 mM Tris-HCl buffer (7.4 pH), 150 mM KCl, 10 mM MgCl2, and 1 mM β-NADPH. Incubation was initiated upon the addition of a 100-fold concentrated solution of the tested compound to one of the microsome preparations. Incubation was terminated by addition of a two-fold volume of a 1/1 mixture of acetonitrile/methanol after either 0 minutes or 30 minutes of incubation at 37° C. Thereafter, proteins and other macromolecules from the microsome preparation were removed by centrifugation. All incubations were conducted in duplicate. […] The HPLC system consisted of a Waters 2795 separations module (Waters Corp., Milford, Mass.) equipped with an inline degasser, temperature controlled auto-sampler, and column oven. The analytical column was a Waters […], 2.1 mm×20 mm column. The mass analyzer was a Waters ZQ, single quadrupole mass spectrometer equipped with an electrospray ionization source operating in the positive ionization mode and utilizing a stainless steel spray capillary. […]

[3] = system: rats; assay: In vivo functional observational battery (FOB); conditions: for Behavior: 1 mg/kg
[4] = In vivo bioavailability after oral dosing; conditions: male, Sprague-Dawley [Crl:CD(SD)], rat, plasma; 1 mg/kg oral, non-fasted; mean of multiple determinations
[5] = 3 mg/kg, 0.5 h after administration
[6] = 3 mg/kg, 1 h after administration
[7] = 3 mg/kg, 2 h after administration
[8] = 3 mg/kg, 4 h after administration
[9] = 3 mg/kg, 6 h after administration
[10] = 300 mg/kg, 0.5 h after administration
[11] = 300 mg/kg, 1 h after administration
[12] = 300 mg/kg, 2 h after administration
[13] = 300 mg/kg, 4 h after administration
[14] = 300 mg/kg, 6 h after administration

Structure (SMILES): CNC(=O)Cn1c(=O)n(C2CCN([C@@H]3Cc4cccc5cccc3c45)CC2)c2ccccc21 [Compound W-212393]
- stability in rat plasma during the determination [1]: unstable in plasma
- Human Metabolic Stability (%) [2]: 27.3%
- Behavior ([3]; 0.5 h after administration): N
- Behavior ([3]; 1 h after administration): N
- Behavior ([3]; 2 h after administration): N
- Behavior ([3]; 4 h after administration): N
- Behavior ([3]; 6 h after administration): N
- Biting behavior [3, 5]: N
- Hvpoactivity [3, 5]: N
- Jumping [3, 5]: N
- Biting behavior [3, 6]: 1 of 6
- Hvpoactivity [3, 6]: 6 of 6
- Jumping [3, 6]: 3 of 6
- Biting behavior [3, 7]: N
- Hvpoactivity [3, 7]: N
- Jumping [3, 7]: 2 of 6
- Biting behavior [3, 8]: N
- Hvpoactivity [3, 8]: N
- Jumping [3, 8]: N
- Biting behavior [3, 9]: N
- Hvpoactivity [3, 9]: N
- Jumping [3, 9]: N
- Abdominal position/side lying position [3, 10]: 6 of 6
- Biting behavior [3, 10]: 3 of 6
- Decreased muscle tone [3, 10]: 6 of 6
- Jumping [3, 10]: 2 of 6
- Loss of auricular reflex/righting reflex [3, 10]: 6 of 6
- Loss of flexed or extension reflex [3, 10]: 6 of 6
- Loss of pain reaction [3, 10]: 6 of 6
- Respiratory irregularity [3, 10]: 6 of 6
- Abdominal position/side lying position [3, 11]: 6 of 6
- Biting behavior [3, 11]: N
- Decreased muscle tone [3, 11]: 6 of 6
- Jumping [3, 11]: N
- Loss of auricular reflex/righting reflex [3, 11]: 6 of 6
- Loss of flexed or extension reflex [3, 11]: 6 of 6
- Loss of pain reaction [3, 11]: 6 of 6
- Respiratory irregularity [3, 11]: 6 of 6
- Abdominal position/side lying position [3, 12]: 6 of 6
- Biting behavior [3, 12]: N
- Decreased muscle tone [3, 12]: 6 of 6
- Jumping [3, 12]: N
- Loss of auricular reflex/righting reflex [3, 12]: 6 of 6
- Loss of flexed or extension reflex [3, 12]: 6 of 6
- Loss of pain reaction [3, 12]: 6 of 6
- Respiratory irregularity [3, 12]: 6 of 6
- Abdominal position/side lying position [3, 13]: 6 of 6
- Biting behavior [3, 13]: N
- Decreased muscle tone [3, 13]: 6 of 6
- Jumping [3, 13]: N
- Loss of auricular reflex/righting reflex [3, 13]: 6 of 6
- Loss of flexed or extension reflex [3, 13]: 6 of 6
- Loss of pain reaction [3, 13]: 6 of 6
- Respiratory irregularity [3, 13]: 6 of 6
- Abdominal position/side lying position [3, 14]: 6 of 6
- Biting behavior [3, 14]: N
- Decreased muscle tone [3, 14]: 6 of 6
- Jumping [3, 14]: N
- Loss of auricular reflex/righting reflex [3, 14]: 6 of 6
- Loss of flexed or extension reflex [3, 14]: 6 of 6
- Loss of pain reaction [3, 14]: 6 of 6
- Respiratory irregularity [3, 14]: 6 of 6
- bioavailability [4]: 2.1%
- brain penetration relative to average of Compound (1C) (0.5/0.033): at least 15 times
- brain penetration relative to maximum value of Compound (1C) (0.5/0.040): at least 13 times
